Active and inactive are the calls of the source. No cut-off for these calls is given here.
Columns and labels:
Estrogen receptor beta [1] = target: T1, Estrogen receptor beta (Homo sapiens, UniProt Q92731); assay: Binding affinity to ERbeta (unknown origin) assessed as relative binding affinity incubated for 2 hrs by fluorescence polarization assay relative to estradiol
[2] = Selectivity ratio of relative binding affinity for ERalpha (unknown origin) to relative binding affinity to ERbeta (unknown origin)
[3] = Selectivity index, ratio of Ki for ERalpha (unknown origin) to Ki for ERbeta (unknown origin)
Estrogen receptor = target: T2, Estrogen receptor (Homo sapiens, UniProt P03372)
T2 sequence (P03372 whole entry): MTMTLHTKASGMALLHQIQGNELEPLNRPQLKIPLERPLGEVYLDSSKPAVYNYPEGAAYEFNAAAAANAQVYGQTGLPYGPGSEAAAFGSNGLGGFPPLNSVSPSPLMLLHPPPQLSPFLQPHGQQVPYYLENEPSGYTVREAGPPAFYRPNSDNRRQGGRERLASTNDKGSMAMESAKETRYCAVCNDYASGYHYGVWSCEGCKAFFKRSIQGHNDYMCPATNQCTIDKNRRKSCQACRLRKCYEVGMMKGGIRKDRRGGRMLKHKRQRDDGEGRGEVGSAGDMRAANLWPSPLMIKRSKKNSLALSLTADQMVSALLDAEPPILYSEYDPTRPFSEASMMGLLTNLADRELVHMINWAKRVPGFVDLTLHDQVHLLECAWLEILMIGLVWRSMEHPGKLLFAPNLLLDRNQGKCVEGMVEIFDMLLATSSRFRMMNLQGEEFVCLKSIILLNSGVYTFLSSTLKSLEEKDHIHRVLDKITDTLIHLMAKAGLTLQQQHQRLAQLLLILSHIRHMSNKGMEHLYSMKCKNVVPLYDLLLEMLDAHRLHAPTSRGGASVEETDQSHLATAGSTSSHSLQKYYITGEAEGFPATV

Estrogen receptor beta [4] = target: T1, Estrogen receptor beta
MCF7 = assay: cells; conditions: Homo sapiens, MCF7, 72 h
cells = conditions: Homo sapiens, Tamoxifen-resistant LCC2 cell, 72 h
T47D [5] = assay: cells; conditions: Homo sapiens, 72 h
T47D [6] = assay: cells; conditions: Homo sapiens, 72 h; remark: listed apart in the source
T47D [7] = assay: cells; conditions: Homo sapiens, 72 h; remark: listed apart in the source
MDA-MB-231 = assay: cells; conditions: Homo sapiens, MDA-MB-231, 72 h
in vitro = conditions: human, MCF-10A cells
[8] = target: Protein cereblon/Estrogen receptor (Homo sapiens) (UniProt P03372+Q96SW2); assay: PROTAC activity at CRBN/wild type ERalpha in ER-positive human MCF7 cells assessed as induction of ERalpha degradation at 1 uM incubated for 12 hrs by Western blot analysis; format: cell-based
Chain of Protein cereblon/Estrogen receptor (Homo sapiens) (Q96SW2 whole entry, looked up, one chain of several): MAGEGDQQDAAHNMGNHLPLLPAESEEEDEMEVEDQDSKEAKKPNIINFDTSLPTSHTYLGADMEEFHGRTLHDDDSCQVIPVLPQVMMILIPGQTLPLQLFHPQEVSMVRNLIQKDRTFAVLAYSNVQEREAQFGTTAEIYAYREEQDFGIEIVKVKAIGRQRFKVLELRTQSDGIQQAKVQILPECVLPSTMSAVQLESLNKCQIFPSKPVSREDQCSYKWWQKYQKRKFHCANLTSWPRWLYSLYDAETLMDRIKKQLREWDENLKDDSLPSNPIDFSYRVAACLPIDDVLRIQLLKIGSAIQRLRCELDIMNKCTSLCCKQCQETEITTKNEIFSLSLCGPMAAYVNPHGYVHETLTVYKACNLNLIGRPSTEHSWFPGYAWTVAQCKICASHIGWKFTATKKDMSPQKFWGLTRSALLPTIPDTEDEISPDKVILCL

T1 sequence (Q92731 whole entry): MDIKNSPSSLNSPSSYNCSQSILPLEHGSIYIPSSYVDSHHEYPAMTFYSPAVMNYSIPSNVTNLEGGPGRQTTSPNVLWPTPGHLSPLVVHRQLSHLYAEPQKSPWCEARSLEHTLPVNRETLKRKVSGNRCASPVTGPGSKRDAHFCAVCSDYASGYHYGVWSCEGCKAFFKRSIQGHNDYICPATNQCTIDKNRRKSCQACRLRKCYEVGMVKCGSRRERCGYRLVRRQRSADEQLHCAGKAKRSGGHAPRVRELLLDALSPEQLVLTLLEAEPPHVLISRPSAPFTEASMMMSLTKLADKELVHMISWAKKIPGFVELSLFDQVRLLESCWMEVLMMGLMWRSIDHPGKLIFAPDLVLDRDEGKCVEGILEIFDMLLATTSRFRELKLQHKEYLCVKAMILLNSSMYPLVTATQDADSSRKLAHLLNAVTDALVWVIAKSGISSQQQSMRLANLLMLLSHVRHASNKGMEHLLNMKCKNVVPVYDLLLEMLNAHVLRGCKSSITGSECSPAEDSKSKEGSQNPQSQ

SMILES	RBA (Estrogen receptor beta [1]) [%]	Selectivity ratio [2]	Ratio Ki [3]	Ki (Estrogen receptor) [µM]	Ki (Estrogen receptor beta [4]) [µM]	IC50 (MCF7) [µM]	IC50 (cells) [µM]	IC50 (T47D [5]) [µM]	IC50 (T47D [6]) [µM]	IC50 (T47D [7]) [µM]	IC50 (MDA-MB-231) [µM]	IC50 at 72 h (in vitro) [µM]	Activity [8]
CCN(c1ccc(OCCCCCCC(=O)N[C@H](C(=O)N2C[C@H](O)C[C@H]2C(=O)NCc2ccc(-c3scnc3C)cc2)C(C)(C)C)cc1)S(=O)(=O)C1CC2OC1C(c1ccc(O)cc1)=C2c1ccc(O)cc1 (some centres not stated)	0.12	1.58	6.13	1.07	6.55	0.43	> 30	> 30	> 30	> 30	> 100	> 100	–
CCN(c1ccc(OCCCCCCCCC(=O)N[C@H](C(=O)N2C[C@H](O)C[C@H]2C(=O)NCc2ccc(-c3scnc3C)cc2)C(C)(C)C)cc1)S(=O)(=O)C1CC2OC1C(c1ccc(O)cc1)=C2c1ccc(O)cc1 (some centres not stated)	0.07	0.57	2.21	5.08	11.2	> 10	> 30	> 30	> 30	> 30	> 100	> 100	–
O=C(COc1ccc(C2CCC(=O)NC2=O)cc1)NCCCCCCNC(=O)COc1ccc(N(CC(F)(F)F)S(=O)(=O)C2CC3OC2C(c2ccc(O)cc2)=C3c2ccc(O)cc2)cc1 (configuration not stated)	0.11	1.64	6.34	1.13	7.15	6.52	> 30	> 30	> 30	> 30	> 100	> 30	Active
O=C(COc1ccc(C2CCC(=O)NC2=O)cc1)NCCCCNC(=O)COc1ccc(N(CC(F)(F)F)S(=O)(=O)C2CC3OC2C(c2ccc(O)cc2)=C3c2ccc(O)cc2)cc1 (configuration not stated)	0.18	0.89	3.44	1.27	4.37	0.69	14.5	14.6	17.7	15.2	> 100	9.45	Active
CCN(c1ccc(OCCCCC(=O)N[C@H](C(=O)N2C[C@H](O)C[C@H]2C(=O)N[C@@H](C)c2ccc(-c3scnc3C)cc2)C(C)(C)C)cc1)S(=O)(=O)C1CC2OC1C(c1ccc(O)cc1)=C2c1ccc(O)cc1 (some centres not stated)	0.11	1.45	5.63	1.27	7.15	0.93	16.8	14.2	14.6	18.1	> 100	2.4	–
CCN(c1ccc(OCCCCCCCC(=O)N[C@H](C(=O)N2C[C@H](O)C[C@H]2C(=O)NCc2ccc(-c3scnc3C)cc2)C(C)(C)C)cc1)S(=O)(=O)C1CC2OC1C(c1ccc(O)cc1)=C2c1ccc(O)cc1 (some centres not stated)	0.1	2.7	10.4	0.75	7.86	> 10	> 30	> 30	> 30	> 30	> 100	> 100	–
CCN(c1ccc(OCCCCCC(=O)Nc2cccc3c2C(=O)N(C2CCC(=O)NC2=O)C3=O)cc1)S(=O)(=O)C1CC2OC1C(c1ccc(O)cc1)=C2c1ccc(O)cc1 (configuration not stated)	0.18	1.17	4.52	0.97	4.37	> 100	> 100	> 100	> 100	> 100	> 100	> 100	inactive
